Laboratory results published in patent US11701362B2, “Compositions and methods of use of cis-4-[2-{[(3S,4R)-3-fluorooxan-4-yl]amino}-8-(2,4,6-trichloroanilino)-9H-purin-9-yl]-1- methylcyclohexane-1-carboxamide” (Celgene Corporation, priority 2017, dated 2023).
Values after ≈ are worked out from the molar mass of the structure shown. Counter-ions that a name gives are not always drawn.

Legend:
Format in all cases: physicochemical
[1] = Solubility of Compound 1 citrate in pH 6.5 phosphate buffer with SLS
Experimental: Solubility of Compound 1 was determined in various percentages of sodium lauryl sulfate (SLS). 0.03% SLS was selected as the media for dissolution condition 3. Samples were filtered using a 0.2 μm nylon syringe filter, and analyzed by UPLC-UV utilizing the method parameters listed in Table 9.

[2] = Dissolution of drug in capsule in 0.01N HCl and 0.001N HCl at 37° C.; details: for Compound 1 released: 125 mg capsule, 37° C., 60 minutes
Experimental: To assess the feasibility of using Compound 1 in a capsule to support FIH study, a dissolution study with a capsule containing 125 mg Compound 1 free base monohydrate was performed in the media of 0.01N HCl and 0.001N HCl at 37° C. Capsule shell shrinkage was observed. […] Blend in capsule or other formulation approaches may be necessary.
A dissolution study for citrate salt in a capsule in 0.01N HCl was also carried out.

[3] = Solubility study (water, SGF, SIF, preclinical vehicle, bio-relevant media); details: for Solubility, Concentration: at 24 hours
Experimental: (§1) Solubility Study: Compound 1 free base pKa was determined to be 5.14. […] Solubility in the preclinical formulation, 0.5% CMC/0.25% Tween 80, was determined to be 0.18 mg/ml at pH 8.1.

[4] = Solid state chemical and physical stability of free base monohydrate
Experimental: Chemical Stability Study: Solid state stability of Compound 1 free base monohydrate was evaluated at 80° C. for 2 weeks and 40° C./75% RH, 50° C./75% RH and 60° C. for up to 5 weeks.
This dehydrate form converted back to monohydrate immediately when samples were exposed to room temperature and RH>30%. If RH is in the range of 5-30%, the dehydrate form may take 1-3 days to convert back to monohydrate.

pKa determination = assay: pKa determination
Experimental: as §1

[5] = Solution and suspension stability; details: 37° C.
Experimental: The solution stability of Compound 1 free base in water, SGF (pH 1.3), SIF (pH 7.5), and 0.1N NaOH with and without light protection at 37° C. was tested.

[6] = Tablet dissolution in pH 2 phosphate buffer and pH 5 phosphate buffer with 0.1% sodium laureth sulfate; details: tablets, pH 5 phosphate buffer and 0.1% sodium laureth sulfate
[7] = Bulk and tap density and flow properties (Carr's Index, Hausner's Ratio)
Experimental: Needle-like particle shapes have poor powder flow and low densities. […] Reduced drug loadings (dilution of the poor flow component) improved flow characteristics of the resultant blend.
The 5 formulations covered drug loadings of 1.8-23.0% and 1-25 mg strengths. The bulk and tap densities for each formulation are included in Table 30.
Flow property scales for Carr's (Compressibility) Index and Hausner's Ratio are described in Table 37. The flow of the blends was assessed as very poor to passible.

SMILES: C[C@]1(C(N)=O)CC[C@@H](n2c(Nc3c(Cl)cc(Cl)cc3Cl)nc3cnc(N[C@@H]4CCOC[C@H]4F)nc32)CC1 (relative stereo) [Compound 1 citrate, cis-4-[2-{[(3S,4R)-3-fluorooxan-4-yl]amino}-8-(2,4,6-trichloroanilino)-9H-purin-9-yl]-1-methylcyclohexane-1-carboxamide]
- solubility ([1]; 0.01% SLS): 0.000 mg salt/mL
- solubility ([1]; 0.02% SLS): 0.001 mg salt/mL
- solubility ([1]; 0.03% SLS): 0.054 mg salt/mL
- solubility ([1]; 0.05% SLS): 0.336 mg salt/mL
- solubility ([1]; 0.1% SLS): 0.807 mg salt/mL
- dissolution profile compared to freebase monohydrate ([2]; capsule in 0.01N HCl): better dissolution profile

SMILES: C[C@]1(C(N)=O)CC[C@@H](n2c(Nc3c(Cl)cc(Cl)cc3Cl)nc3cnc(N[C@@H]4CCOC[C@H]4F)nc32)CC1 (relative stereo) [Compound 1 free base monohydrate, cis-4-[2-{[(3S,4R)-3-fluorooxan-4-yl]amino}-8-(2,4,6-trichloroanilino)-9H-purin-9-yl]-1-methylcyclohexane-1-carboxamide]
- Solubility, Concentration ([3]; FaSSGF): 2810 µg/mL
- Solubility, Concentration ([3]; FaSSIF): 260 µg/mL
- Solubility, Concentration ([3]; FeSSGF): 4 µg/mL
- Solubility, Concentration ([3]; FeSSIF): 2070 µg/mL
- pH @ 24 hr ([3]; solubility sample in FaSSGF): 1.84
- pH @ 24 hr ([3]; solubility sample in FaSSIF): 6.48
- pH @ 24 hr ([3]; solubility sample in FeSSGF): 6.31
- pH @ 24 hr ([3]; solubility sample in FeSSIF): 4.94
- solid state chemical stability ([4]; 80° C. for 2 weeks, 40° C./75% RH, 50° C./75% RH and 60° C. up to 5 weeks): chemically relatively stable
- time for the dehydrate form to convert back to monohydrate ([4]; RH in the range of 5-30%): 1 to 3 days
- physical stability ([4]; heated at 60 and 80° C.): lost water and converted to a dehydrate form
- Compound 1 released ([2]; 0.001N HCl): 10%
- Compound 1 released ([2]; 0.01N HCl): About 80%

SMILES: C[C@]1(C(N)=O)CC[C@@H](n2c(Nc3c(Cl)cc(Cl)cc3Cl)nc3cnc(N[C@@H]4CCOC[C@H]4F)nc32)CC1 (relative stereo) [Compound 1 free base, cis-4-[2-{[(3S,4R)-3-fluorooxan-4-yl]amino}-8-(2,4,6-trichloroanilino)-9H-purin-9-yl]-1-methylcyclohexane-1-carboxamide]
- pKa (pKa determination): 5.14
- solution stability, remaining ([5]; 0.1N NaOH without light protection, day 1): 88%
- solution stability, remaining ([5]; 0.1N NaOH without light protection, day 4): 61%
- solution stability, remaining ([5]; water, SGF (pH 1.3), SIF (pH 7.5), 0.1N NaOH, 4 days, all except 0.1N NaOH without light protection): > 95%

SMILES: C[C@]1(C(N)=O)CC[C@@H](n2c(Nc3c(Cl)cc(Cl)cc3Cl)nc3cnc(N[C@@H]4CCOC[C@H]4F)nc32)CC1 (relative stereo) [HCl salt of Compound 1, cis-4-[2-{[(3S,4R)-3-fluorooxan-4-yl]amino}-8-(2,4,6-trichloroanilino)-9H-purin-9-yl]-1-methylcyclohexane-1-carboxamide]
- dissolution compared with free base and citrate salt [6]: higher dissolution

SMILES: C[C@]1(C(N)=O)CC[C@@H](n2c(Nc3c(Cl)cc(Cl)cc3Cl)nc3cnc(N[C@@H]4CCOC[C@H]4F)nc32)CC1 [Compound 1, cis-4-[2-{[(3S,4R)-3-fluorooxan-4-yl]amino}-8-(2,4,6-trichloroanilino)-9H-purin-9-yl]-1-methylcyclohexane-1-carboxamide]
- Bulk Density [7]: 0.2 g/mL
- Tap Density [7]: 0.38 g/mL
- solubility ([3]; 0.5% CMC/0.25% Tween 80 (preclinical formulation), aqueous with cosolvent or surfactant or cyclodextrin, preclinical formulation 0.5% CMC/0.25% Tween 80, pH 8.1, read-out: solubility): 180 µg/mL (≈ 315 µM)
- solubility ([3]; pH 4.5, aqueous buffer, read-out: solubility): ~250 µg/mL (≈ 438 µM)
- solubility ([3]; simulated gastric fluid (SGF), simulated gastric fluid, simulated gastric fluids (SGF) (pH 1.9), read-out: solubility): 3500 µg/mL (≈ 6130 µM)
- solubility ([3]; simulated gastric fluid, low pH (0.1 N HCl), read-out: solubility): ~1700 µg/mL (≈ 2980 µM)
- solubility ([3]; simulated intestinal fluid (SIF), pH 7.3, fassgf or other biorelevant, read-out: solubility): 2 µg/mL (≈ 3.5 µM)
- solubility ([3]; simulated intestinal fluids (SIF) (pH 7.3)): 2 µg/mL (≈ 3.5 µM)
- solubility ([3]; water (pH 8.1), read-out: solubility): 3 µg/mL (≈ 5.26 µM)
- pKa (pKa determination): ~5.1
